Measured values reported in publication PMC9516332 (Frontiers in Oncology, 2022).
Read-outs that look alike come from different tables or passages of the source.

Columns and labels:
134 cancer cell lines = assay: Cell viability assay (ATPlite, 72 hours), IC50 on cancer cell line panel
AP-1060 (ETV6-NTRK3) = assay: Cell viability assay; details: read-out: IC50 in cell proliferation assay

Cn1cnc2c(F)c(Nc3ccc(Br)cc3F)c(C(=O)NOCCO)cc21 [binimetinib]
IC50 (134 cancer cell lines; Homo sapiens, MIA PaCa-2, read-out: IC50 in cell proliferation assay, MIA PaCa-2 cell line): 0.14 µM
IC50 (134 cancer cell lines; Homo sapiens, MKN-45, read-out: IC50 in cell proliferation assay, MKN45 cell line (MET amplification)): 1.15 µM
IC50 (134 cancer cell lines; Homo sapiens, MOLM-13, read-out: IC50 in cell proliferation assay, MOLM-13 cell line (FLT3 ITD)): 1.03 µM
IC50 (134 cancer cell lines; Homo sapiens, MOLT-4, read-out: IC50 in cell proliferation assay, MOLT-4 cell line): > 31.6 µM
IC50 (134 cancer cell lines; Homo sapiens, MV4-11, read-out: IC50 in cell proliferation assay, MV4-11 cell line (FLT3 ITD)): 0.511 µM
IC50 (134 cancer cell lines; Homo sapiens, MeWo, read-out: IC50 in cell proliferation assay, MeWo cell line): 0.117 µM
IC50 (134 cancer cell lines; Homo sapiens, NCCIT, read-out: IC50 in cell proliferation assay, NCC-IT cell line): 12.1 µM
IC50 (134 cancer cell lines; Homo sapiens, NCI-H82, read-out: IC50 in cell proliferation assay, cell line NCI-H82): > 31.6 µM
IC50 (134 cancer cell lines; Homo sapiens, NCI-H460, read-out: IC50 in cell proliferation assay, NCI-H460 cell line): 0.12 µM
IC50 (134 cancer cell lines; Homo sapiens, NCI-H661, read-out: IC50 in cell proliferation assay, NCI-H661 cell line): 3.31 µM
IC50 (134 cancer cell lines; Homo sapiens, NCI-H716, read-out: IC50 in cell proliferation assay, cell line NCI-H716 (FGFR2-COL14A1)): 0.027 µM
IC50 (134 cancer cell lines; Homo sapiens, NCI-H1650, read-out: IC50 in cell proliferation assay, NCI-H1650 cell line (EGFR exon19del)): 8.56 µM
IC50 (134 cancer cell lines; Homo sapiens, NCI-H1975, read-out: IC50 in cell proliferation assay, NCI-H1975 cell line (EGFR p.L858R + p.T790M)): 0.201 µM
IC50 (134 cancer cell lines; Homo sapiens, NCI-H2228, read-out: IC50 in cell proliferation assay, NCI-H2228 cell line (EML4-ALK)): 0.016 µM
IC50 (134 cancer cell lines; Homo sapiens, OVCAR-3, read-out: IC50 in cell proliferation assay, cell line OVCAR-3): > 31.6 µM
IC50 (134 cancer cell lines; Homo sapiens, PFSK-1, read-out: IC50 in cell proliferation assay, cell line PFSK-1): > 31.6 µM
IC50 (134 cancer cell lines; Homo sapiens, RL95-2, read-out: IC50 in cell proliferation assay, cell line RL95-2 (EGFR p.A289V)): 0.024 µM
IC50 (134 cancer cell lines; Homo sapiens, RPMI-7951, read-out: IC50 in cell proliferation assay, cell line RPMI-7951 (BRAF p.V600E)): 0.199 µM
IC50 (134 cancer cell lines; Homo sapiens, RS4-11, read-out: IC50 in cell proliferation assay, cell line RS4;11): > 31.6 µM
IC50 (134 cancer cell lines; Homo sapiens, Rec1, read-out: IC50 in cell proliferation assay, cell line REC-1): > 31.6 µM
IC50 (134 cancer cell lines; Homo sapiens, SHP77, read-out: IC50 in cell proliferation assay, cell line SHP-77): > 31.6 µM
IC50 (134 cancer cell lines; Homo sapiens, SK-BR-3, read-out: IC50 in cell proliferation assay, cell line SK-BR-3 (ERBB2 amplification)): > 31.6 µM
IC50 (134 cancer cell lines; Homo sapiens, SK-N-AS, read-out: IC50 in cell proliferation assay, cell line SK-N-AS): 0.014 µM
IC50 (134 cancer cell lines; Homo sapiens, SK-N-FI, read-out: IC50 in cell proliferation assay, cell line SK-N-FI): 0.798 µM
IC50 (134 cancer cell lines; Homo sapiens, SK-N-MC, read-out: IC50 in cell proliferation assay, cell line SK-N-MC): > 31.6 µM
IC50 (134 cancer cell lines; Homo sapiens, SK-N-SH, read-out: IC50 in cell proliferation assay, cell line SK-N-SH (ALK p.F1174L)): 0.059 µM
IC50 (134 cancer cell lines; Homo sapiens, SNU-5, read-out: IC50 in cell proliferation assay, cell line SNU-5 (MET amplification)): 1.46 µM
IC50 (134 cancer cell lines; Homo sapiens, SNU-16, read-out: IC50 in cell proliferation assay, cell line SNU-16 (FGFR2 amplification)): 9.73 µM
IC50 (134 cancer cell lines; Homo sapiens, SNU-C2B, read-out: IC50 in cell proliferation assay, cell line SNU-C2B (EGFR p.R165Q)): 0.176 µM
IC50 (134 cancer cell lines; Homo sapiens, SU-DHL-1, read-out: IC50 in cell proliferation assay, cell line SU-DHL-1 (NPM1-ALK)): 2.85 µM
IC50 (134 cancer cell lines; Homo sapiens, SU-DHL-6, read-out: IC50 in cell proliferation assay, cell line SU-DHL-6): 0.047 µM
IC50 (134 cancer cell lines; Homo sapiens, SUP-T1, read-out: IC50 in cell proliferation assay, cell line SUP-T1): > 31.6 µM
IC50 (134 cancer cell lines; Homo sapiens, SW48, read-out: IC50 in cell proliferation assay, cell line SW48 (EGFR p.G719S)): 0.014 µM
IC50 (134 cancer cell lines; Homo sapiens, SW480, read-out: IC50 in cell proliferation assay, cell line SW480): 0.739 µM
IC50 (134 cancer cell lines; Homo sapiens, SW626, read-out: IC50 in cell proliferation assay, cell line SW626): 0.032 µM
IC50 (134 cancer cell lines; Homo sapiens, SW780, read-out: IC50 in cell proliferation assay, cell line SW780 (FGFR3-BAIAP2L1)): 0.272 µM
IC50 (134 cancer cell lines; Homo sapiens, SW837, read-out: IC50 in cell proliferation assay, cell line SW837): 0.11 µM
IC50 (134 cancer cell lines; Homo sapiens, SW872, read-out: IC50 in cell proliferation assay, cell line SW872 (BRAF p.V600E)): 0.034 µM
IC50 (134 cancer cell lines; Homo sapiens, SW900, read-out: IC50 in cell proliferation assay, cell line SW900): 0.077 µM
IC50 (134 cancer cell lines; Homo sapiens, SW948, read-out: IC50 in cell proliferation assay, cell line SW948): 0.082 µM
IC50 (134 cancer cell lines; Homo sapiens, SW982, read-out: IC50 in cell proliferation assay, cell line SW982 (BRAF p.V600E)): 0.166 µM
IC50 (134 cancer cell lines; Homo sapiens, SW-620, read-out: IC50 in cell proliferation assay, cell line SW620): 0.018 µM
IC50 (134 cancer cell lines; Homo sapiens, T98G, read-out: IC50 in cell proliferation assay, cell line T98G): 11.9 µM
IC50 (134 cancer cell lines; Homo sapiens, TCC-SUP, read-out: IC50 in cell proliferation assay, cell line TCCSUP): 0.363 µM
IC50 (134 cancer cell lines; Homo sapiens, THP-1, read-out: IC50 in cell proliferation assay, cell line THP-1): 0.017 µM
IC50 (134 cancer cell lines; Homo sapiens, U2OS, read-out: IC50 in cell proliferation assay, cell line U2OS): 4.12 µM
IC50 (134 cancer cell lines; Homo sapiens, U-87 MG, read-out: IC50 in cell proliferation assay, cell line U-87MG ATCC): 8.59 µM
IC50 (134 cancer cell lines; Homo sapiens, U-118-MG, read-out: IC50 in cell proliferation assay, cell line U-118MG): > 31.6 µM
IC50 (134 cancer cell lines; Homo sapiens, UMUC3, read-out: IC50 in cell proliferation assay, cell line UM-UC-3): 0.124 µM
IC50 (134 cancer cell lines; Hs766T, read-out: IC50 in cell proliferation assay, Hs 766T cell line): 0.033 µM
IC50 (134 cancer cell lines; L-82, read-out: IC50 in cell proliferation assay, L-82 cell line (NPM1-ALK)): 1.91 µM
IC50 (134 cancer cell lines; Rh30, read-out: IC50 in cell proliferation assay, cell line Rh30): > 31.6 µM
IC50 (134 cancer cell lines; read-out: IC50 in cell proliferation assay, 11-18 cell line (EGFR p.L858R)): > 31.6 µM
IC50 (134 cancer cell lines; read-out: IC50 in cell proliferation assay, Hs 852.T cell line): 0.271 µM
IC50 (134 cancer cell lines; read-out: IC50 in cell proliferation assay, JAR cell line): > 31.6 µM
IC50 (134 cancer cell lines; read-out: IC50 in cell proliferation assay, cell line 5637): 0.139 µM
IC50 (134 cancer cell lines; read-out: IC50 in cell proliferation assay, cell line A-388): 0.696 µM
IC50 (134 cancer cell lines; read-out: IC50 in cell proliferation assay, cell line DB): > 31.6 µM
IC50 (134 cancer cell lines; read-out: IC50 in cell proliferation assay, cell line DEL (NPM1-ALK)): > 31.6 µM
IC50 (134 cancer cell lines; read-out: IC50 in cell proliferation assay, cell line ES-2 (BRAF p.V600E)): 0.188 µM
IC50 (134 cancer cell lines; read-out: IC50 in cell proliferation assay, cell line PA-1): 1.35 µM
IC50 (134 cancer cell lines; read-out: IC50 in cell proliferation assay, cell line PC-3): > 31.6 µM
IC50 (134 cancer cell lines; read-out: IC50 in cell proliferation assay, cell line RD): 0.04 µM
IC50 (134 cancer cell lines; read-out: IC50 in cell proliferation assay, cell line RKO (BRAF p.V600E)): 0.029 µM
IC50 (134 cancer cell lines; read-out: IC50 in cell proliferation assay, cell line RL): > 31.6 µM
IC50 (134 cancer cell lines; read-out: IC50 in cell proliferation assay, cell line RT-4 (FGFR3-TACC3)): 19 µM
IC50 (134 cancer cell lines; read-out: IC50 in cell proliferation assay, cell line SR (NPM1-ALK)): 4.03 µM
IC50 (134 cancer cell lines; read-out: IC50 in cell proliferation assay, cell line T24): 0.06 µM
IC50 (134 cancer cell lines; read-out: IC50 in cell proliferation assay, cell line TT (RET p.C634W)): 1.75 µM
IC50 (134 cancer cell lines; read-out: IC50 in cell proliferation assay, cell line VA-ES-BJ): 8.28 µM
IC50 (AP-1060 (ETV6-NTRK3)): 18.8 µM
